In brackets after ≈: the same amount, converted by molar mass. Where two headings read alike, the source gives them in different places. Each block holds one compound with its values, some of them ahead of it.
Key:
HUVEC [1] = assay: HUVEC proliferation, [3H]-thymidine incorporation assay; type: cell-based, human
Method in brief: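 Proliferation read as [3H]-thymidine uptake (1 μCi, 6 h pulse) after 24 h drug treatment in triplicate. Cells: HUVEC at passage ≤8 grown in EGM-2, plated 2000/well the night before; IC50 fitted from scintillation counts.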

CYP3A4 = target: T1, CYP3A4 (Homo sapiens, UniProt P08684); assay: CYP3A4 enzyme assay (Vivid CYP3A4 Green Screening Kit); type: in vitro ADME
T1 construct: purchased ThermoFisher P2857; host or cells: baculosomes (insect-cell microsomes, own knowledge)
T1 sequence (P08684 whole entry): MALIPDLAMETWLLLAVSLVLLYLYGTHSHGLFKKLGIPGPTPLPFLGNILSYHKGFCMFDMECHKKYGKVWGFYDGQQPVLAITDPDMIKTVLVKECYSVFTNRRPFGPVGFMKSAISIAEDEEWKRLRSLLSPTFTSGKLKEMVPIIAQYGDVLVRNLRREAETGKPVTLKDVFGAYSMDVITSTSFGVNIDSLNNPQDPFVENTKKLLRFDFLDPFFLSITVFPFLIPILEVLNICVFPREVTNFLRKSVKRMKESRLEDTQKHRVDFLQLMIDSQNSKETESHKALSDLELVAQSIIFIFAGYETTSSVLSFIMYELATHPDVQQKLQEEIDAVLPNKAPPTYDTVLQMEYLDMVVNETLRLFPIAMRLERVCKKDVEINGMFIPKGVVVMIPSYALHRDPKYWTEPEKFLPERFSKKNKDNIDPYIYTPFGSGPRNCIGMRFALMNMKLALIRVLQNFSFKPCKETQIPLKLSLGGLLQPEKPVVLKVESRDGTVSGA
Method in brief: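 Cell-free fluorescence assay with CYP3A4 baculosomes preincubated with drug 10 min at 37° C before Vivid substrate addition. Fluorescence (ex/em 485/520) read every 1 min for 60 minutes. Compounds tested at 1 μM final concentration.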

HUVECs = assay: Filipin staining of intracellular cholesterol (NPC phenotype); type: cell-based, human; details: HUVEC, 0.2 μM, 24 h
Description: Nieman-Pick C phenotype and mTOR inhibition. […] We thus determined whether compound 48 shared the same mechanism with itraconazole. The intracellular cholesterol was detected using the cholesterol-binding fluorescent dye filipin. […] It is known that AMPK activation leads to mTOR inhibition.
Inhibition of NPC1. NPC1 plays an essential role in cholesterol export from the endolysosome. […] At a close view (FIG. 9B), the linear pyridinyl-piperizin-1-yl-phenyl core of compound 14 nestled into the hydrophobic channel created by the transmembrane helix. The isobutyl tail faced toward the open entrance of this channel. The tetrazole moiety pointed into the closed end of the pocket and interacted with the hydroxyl group of Tyr1225 via hydrogen bonding.
Filipin staining. 2000 HUVECs were plated in chamber slide with 1 ml media and allowed to settle overnight. […] The the cells were fixed with 4% paraformaldehyde for 15 min. After washed, cells were incubated with 500 ul 50 ug/ml filipin solution for 1 hour in the dark. Then the cells were washed twice with PBS, mounted and covered with coverslip. The images were taken using confocal microscope under 360/460 nm.

AMPK = assay: Western blot, AMPK activation in HUVEC; type: cell-based, human; details: 24 h, dose-dependent
Procedure: (§1) Western blot. […] Then cells were lysed using RIPA buffer and the protein concentration were measured and normalized. After electrophoresis and transfer onto 0.45 um nitrocellulose membranes, the membranes were bolted with 5% BSA for 1 h and then incubated overnight at 4° C. Secondary antibody was applied to each membrane for 1 hour. Bolts were imaged using Syngene PXi imaging system after adding chemiluminescent substrate. The following antibodies were used for the assay: AMPKα (1:1,000, cell signaling, #2532s), phosphor-AMPKα (1:1,000, cell signaling #2535s), ACC (1:1,000, cell signaling #3662s), phosphor-ACC (1:1,000, cell signaling, #3661s), mTOR (1:1,000, cell signaling, #2972S), phosphor-mTOR (1:1,000, cell signaling, #9234s), p70 S6 Kinase (1:1,000, senta cruz, #sc-8418), phosphor-p70 S6 Kinase (1:1,000, cell signaling, #3662s), anti-Rabbit IgG (1:10000, GE lifesciences, #NA934V).

mTOR = assay: Western blot, mTOR inhibition in HUVEC; type: cell-based, human; details: for mTOR inhibition (phosphorylation of mTOR / p70 S6K): 24 h
Procedure: as §1

[2] = Aqueous solubility test in 0.001N HCl; type: physicochemical; details: for solubility at 24 h: 0.001 N HCl aqueous buffer, simulated gastric fluid, kinetic from dmso stock, thermodynamic solubility, HPLC, pH=3, room temperature
Procedure: The inhibitory effects of the new analogs on HUVEC proliferation were measured using a [3H]-thymidine incorporation assay. The log P values, used as an indicator of lipophilicity, were calculated using ALOGPS2.1 software. Aqueous solubility is a key physiochemical property relevant for oral absorption. We determined the solubility of each analog in 0.001 N HCl (pH=3), which represents the acidic human gastric fluid.
Aqueous solubility test. In a 1.5 mL microcentrifuge tube, 2 ul of 10 mM compound stock solution in DMSO was added to 1 mL 0.001N HCl aqueous buffer to obtain saturated solution. The resulting mixture was shaken under 600 rpm for 24 h at room temperature. Then the tube was centrifuged at 13,000 rpm for 5 min to remove the undissolved compound. 100 ul of the supernatant was injected to an Agilent 6120 LC/MS for analysis. The mass spectrometry data was collected under SIM/Scan mode. The ions of compound Exact Mass+1 and Exact Mass+23 were monitored as selected ion monitoring (SIM) for peak area integration. Solubility was calculated according to the concentration standard curve of each compound.

HUVEC [3] = assay: HUVEC proliferation, [3H]-thymidine incorporation assay; type: cell-based; details: Homo sapiens, mean ± SD, three independent experiments, read-out: HUVEC inhibition IC50
[4] = Earlier SAR studies, anti-angiogenic activity
[5] = Earlier SAR studies, hepatotoxicity
HUVEC [6] = assay: HUVEC tube formation assay on Matrigel; type: cell-based; details: Homo sapiens, 24 h, read-out: inhibition of HUVEC tube formation (total tube length)
VEGFR2 [7] = assay: Western blot, VEGFR2 glycosylation in HUVEC; type: cell-based, human; details: 24 h
Procedure: mTOR and VEGFR2 inhibition. We then determined the effects of compound 14 on AMPK/mTOR activity and VEGFR2 glycosylation. […] We observed two VEGFR2 bands by Western blotting, representing differentially glycosylated forms of the receptor, with the higher molecular weight band being more predominant in untreated HUVEC. […] The high molecular weight species of VEGFR2 disappeared upon treatment with compound 14 at concentrations of 0.5 μM or higher (FIG. 10A). We next determined whether compound 14 and other analogs affected cellular localization of VEGFR2 using immunofluorescence (FIG. 10B). […] In contrast, in the untreated cells VEGFR2 was uniformly distributed in small puncta throughout the cytoplasm. As a critical component of lipid rafts, cholesterol is pivotal to intracellular transportation and cell signaling.
Western blot. […] Then cells were lysed using RIPA buffer and the protein concentration were measured and normalized. After electrophoresis and transfer onto 0.45 um nitrocellulose membranes, the membranes were bolted with 5% BSA for 1 h and then incubated overnight at 4° C. Secondary antibody was applied to each membrane for 1 hour. Bolts were imaged using Syngene PXi imaging system after adding chemiluminescent substrate. […]

VEGFR2 [8] = assay: Immunofluorescence assay, VEGFR2 cellular localization; type: cell-based, human; details: HUVEC, 2 μM, 24 h, colocalized with GM130
Procedure: Immunofluorescence assay. HUVECs (5000) were seeded in 4-well chamber slide (Nunc™ Lab-Tek™ II) with 1 mL media and cultured overnight. Cells were treated with […] drugs or DMSO for 24 h. The media was then aspirated and washed 3 times with PBS. Cells were fixed with 4% paraformaldehyde for 15 min, washed three times with PBS, permeabilized with 0.1% Triton X and washed again. 2% BSA blocking buffer was applied to the cells for 1 h. The primary antibodies of VEGFR2 (1:50, cell signaling, #2479) and GM130 (1:1000, BD, #610823) were incubated overnight at 4° C. After washing 3 times with 0.5% BSA in PBS, secondary antibody solutions (1:1000 goat anti-rabbit Alexa Fluor 488, Invitrogen, #A11008 and 1:1000 goat anti-mouse Alexa Fluor 594, Invitrogen, A11005) were applied at room temperature for 1 h in the dark. After washing 3 times, slides were incubated in 0.1 μg/mL DAPI solution for 5 min and rinsed 2 times with PBS. The coverslip was mounted with Immunount (Fisher) and sealed with nail polish. Confocal images were taken using Zeiss LSM700 confocal microscope with 20× lenses.

[9] = background statement; cited from earlier work
[10] = dose-response, FIG. 2 / FIG. 6, read-out: IC50 for CYP3A4 inhibition

Compound: CCC(C)n1ncn(-c2ccc(N3CCN(c4ccc(OC[C@@H]5CO[C@@](Cn6cncn6)(c6ccc(Cl)cc6Cl)O5)cc4)CC3)cc2)c1=O (stereo partly drawn) [IT-C]
anti-angiogenic activity, in words [4]: strongest anti-angiogenic activity
hepatotoxicity, in words [5]: significantly reduced hepatotoxicity

Compound: CCC(C)n1ncn(-c2ccc(N3CCN(c4ccc(OC[C@@H]5CO[C@@](Cn6cnnn6)(c6ccc(Cl)cc6Cl)O5)cn4)CC3)cc2)c1=O (stereo partly drawn) [Compound 14, 4-(4-(4-(5-(((2S,4R)-2-((1H-tetrazol-1-yl)methyl)-2-(2,4-dichlorophenyl)-1,3-dioxolan-4-yl)methoxy)pyridin-2-yl)piperazin-1-yl)phenyl)-2-(sec-butyl)-2,4-dihydro-3H-1,2,4-triazol-3-one]
IC50 (HUVEC [1]; [3H]-thymidine incorporation, mean ± SD, three independent experiments, read-out: HUVEC inhibition IC50): 77.1 ± 11.9 nM
IC50 (CYP3A4; [10]): 95000 nM
inhibition at 3 µM (HUVEC [6]): 70%
induction of NPC phenotype (cholesterol accumulation) (HUVECs): massive build-up of cholesterol
AMPK activation (phosphorylation of AMPK Thr172 / substrate ACC) (AMPK): activated AMPK
S6K phosphorylation at higher doses (mTOR; 1 μM and 2 μM): completely abolished
mTOR inhibition (phosphorylation of mTOR / p70 S6K) (mTOR): potently inhibited
VEGFR2 glycosylation, band mobility (VEGFR2 [7]): mobility shift to the lower molecular weight, hypoglycosylated band
concentration at which the high molecular weight species of VEGFR2 disappeared (VEGFR2 [7]): ≥ 0.5 µM
VEGFR2 cellular localization (VEGFR2 [8]): accumulated in the perinuclear region
increase in solubility compared to itraconazole ([2]; 0.001N HCl): over 90 fold
solubility at 24 h [2]: 0.951 µg/mL (≈ 1.34 µM)
IC50 (HUVEC [3]): 77 nM

Compound: CCC(C)n1ncn(-c2ccc(N3CCN(c4ccc(OCC5COC(Cn6cncn6)(c6ccc(Cl)cc6Cl)O5)cc4)CC3)cc2)c1=O (stereo not drawn) [itraconazole, reference compound]
solubility at 24 h [2]: 0.0101 µg/mL (≈ 0.0143 µM)
log P [9]: 5.3

More lines, main results first:

CYP3A4 Inhibition (compared to intracozanole at 1 um) (CYP3A4; % enzyme inhibition at 1 uM drug / % enzyme inhibition at 1 uM itraconazole): 0.02
IC50 at 60 min (CYP3A4; human, recombinant CYP3A4 baculosomes (cell-free), probe Vivid substrate (Vivid CYP3A4 Green Screening Kit), dose-response, FIG. 2 / FIG. 6, read-out: IC50 for CYP3A4 inhibition): > 20000 nM
EC50 at 60 min (CYP3A4; human, recombinant CYP3A4 baculosomes, probe Vivid substrate (Vivid CYP3A4 Green Screening Kit), read-out: EC50 against CYP3A4): > 20000 nM
Compound: CCC(C)n1ncn(-c2ccc(N3CCN(c4ccc(OC[C@@H]5CO[C@@](Cn6cnnn6)(c6ccc(Cl)cc6Cl)O5)cc4)CC3)cc2)c1=O (stereo partly drawn) [Compound 48, 4-(4-(4-(4-(((2S,4R)-2-((1H-tetrazol-1-yl)methyl)-2-(2,4-dichlorophenyl)-1,3-dioxolan-4-yl)methoxy)phenyl)piperazin-1-yl)phenyl)-1-sec-butyl-1H-1,2,4-triazol-5(4H)-one]
Proliferation (IC50/IC50 Itra) (HUVEC [1]; HUVEC IC50 relative to itraconazole): 0.4
induction of NPC phenotype (cholesterol accumulation) (HUVECs; listed as compound 48): induced NPC phenotype
AMPK activation (phosphorylation of AMPK Thr172 / substrate ACC) (AMPK): increased the phosphorylation of AMPK
mTOR inhibition (phosphorylation of mTOR / p70 S6K) (mTOR): decrease in the phosphorylation of mTOR

IC50 (CYP3A4; [10]): 37000 nM
solubility at 24 h [2]: 0.708 µg/mL (≈ 0.975 µM)
Compound: CCC(C)n1ncn(-c2ccc(N3CCN(c4ccc(OC[C@@H]5CO[C@@](Cn6cnnn6)(c6ccc(Cl)cc6Cl)O5)cn4)CC3)c(F)c2)c1=O (stereo partly drawn) [Compound 15, 4-(4-(4-(5-(((2S,4R)-2-((1H-tetrazol-1-yl)methyl)-2-(2,4-dichlorophenyl)-1,3-dioxolan-4-yl)methoxy)pyridin-2-yl)piperazin-1-yl)-3-fluorophenyl)-2-(sec-butyl)-2,4-dihydro-3H-1,2,4-triazol-3-one]
induction of NPC phenotype (cholesterol accumulation) (HUVECs): massive build-up of cholesterol
IC50 (HUVEC [3]): 108 ± 8.6 nM

CYP3A4 inhibition, in words (CYP3A4; dose response or compared with itraconazole): significantly reduced CYP3A4 inhibition
solubility at 24 h [2]: 0.321 µg/mL (≈ 0.455 µM)
Compound: CCC(C)n1ncn(-c2ccc(N3CCN(c4ccc(OC[C@@H]5CO[C@@](Cn6cnnn6)(c6ccc(Cl)cc6Cl)O5)cc4)CC3)cc2)c1=O (stereo partly drawn) [Compound 24]
induction of NPC phenotype (cholesterol accumulation) (HUVECs; listed as compound 24): massive build-up of cholesterol
anti-angiogenic activity, in words [4]: increased activity

IC50 (CYP3A4; [10]): > 100000 nM
solubility at 24 h [2]: 0.0528 µg/mL (≈ 0.0729 µM)
Compound: CCC(C)n1ncn(-c2ccc(N3CCN(c4ccc(OC[C@@H]5CO[C@@](Cn6cnnn6)(c6ccc(Cl)cc6Cl)O5)cc4)CC3)c(F)c2)c1=O (stereo partly drawn) [Compound 8, 4-(4-(4-(4-(((2S,4R)-2-((1H-tetrazol-1-yl)methyl)-2-(2,4-dichlorophenyl)-1,3-dioxolan-4-yl)methoxy)phenyl)piperazin-1-yl)-3-fluorophenyl)-2-(sec-butyl)-2,4-dihydro-3H-1,2,4-triazol-3-one]
induction of NPC phenotype (cholesterol accumulation) (HUVECs): massive build-up of cholesterol
IC50 (HUVEC [3]): 153 ± 32.7 nM

Reference: patent publication US12071430B2 (The Johns Hopkins University, priority 2011, dated 2024)
